The values below come from PubChem BioAssay (NCI).

Molecules are shown by their SMILES.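 Five compound concentrations were applied to cells in 96-well plates for 48 hours; endpoints were derived by simple linear interpolation of the resulting dose-response curve. At the GI50, growth is halved. The concentration for full growth arrest is given as TGI.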

Some test systems named below: CCRF-CEM leukemia; DLD-1 colon; DMS 273 small cell lung; HCT-116 colon; HL-60(TB) leukemia; NCI-H226 lung; OVCAR-8 ovarian; SNB-19 CNS; SF-268 CNS; UACC-62 melanoma.
What all share (assay): inhibition of tumour cell growth, NCI panel, 48 h

With `[N-]=[N+]=NC(c1cn(C2CC(O)C(CO)O2)c(=O)[nH]c1=O)C(Cl)Br` (centres undefined), the TGI in the assay with CCRF-CEM leukemia, in the assay on DLD-1 colon, with DMS 273 small cell lung, in the assay with HCT-116 colon, with HL-60(TB) leukemia and in the assay on NCI-H226 lung was over 100 µM throughout. The TGI with OVCAR-8 ovarian and with SNB-19 CNS was over 100 µM throughout.

On to `O=C1C2C(C(=O)N1c1ccccc1)C1c3ccccc3C2C2C(=O)N(c3ccccc3)C(=O)C21` (centres undefined), for which the TGI in the assay with CCRF-CEM leukemia is over 100 µM; with DLD-1 colon, 8.92 µM; in the assay on DMS 273 small cell lung, 53.2 µM; with HCT-116 colon, over 100 µM; in the assay on HL-60(TB) leukemia, 44.9 µM; in the assay with NCI-H226 lung it was over 100 µM. Besides, the TGI in the assay with OVCAR-8 ovarian, in the assay on SF-268 CNS, in the assay with SNB-19 CNS and with UACC-62 melanoma was over 100 µM throughout.

For `Cc1cc(N(CCC#N)S(=O)(=O)c2ccccc2)ccc1/C=C1\N=C(c2ccc(Cl)cc2)OC1=O`, the TGI with CCRF-CEM leukemia, with DLD-1 colon, in the assay with DMS 273 small cell lung, with HCT-116 colon, in the assay with HL-60(TB) leukemia and in the assay on NCI-H226 lung was over 100 µM each time. In addition, the TGI with OVCAR-8 ovarian, in the assay on SF-268 CNS, in the assay with SNB-19 CNS and with UACC-62 melanoma was over 100 µM in each case.

As for `COC1C(OC(=O)c2ccc(C)[nH]2)C(O)C(Oc2ccc3c(O)c(NC(=O)c4c[nH]c(C(=O)Nc5c(O)c6ccc(OC7OC(C)(C)C(OC)C(OC(=O)c8ccc(C)[nH]8)C7O)c(C)c6oc5=O)c4C)c(=O)oc3c2C)OC1(C)C` (centres undefined), the TGI in the assay on CCRF-CEM leukemia was 10.6 µM; with DLD-1 colon it was 6.08 µM; in the assay with DMS 273 small cell lung, 12.2 µM; in the assay on NCI-H226 lung it was 3.84 µM; with OVCAR-8 ovarian, over 100 µM; with SF-268 CNS, 7.44 µM. The TGI in the assay on SNB-19 CNS stood at 6.1 µM; in the assay on UACC-62 melanoma, 2.37 µM.

On to `O=C(/C=C(\O)C(=O)O)/C=C(\O)c1ccccc1`, for which the GI50 in the assay on CCRF-CEM leukemia, with DMS 273 small cell lung, in the assay with HCT-116 colon, in the assay on HL-60(TB) leukemia, in the assay with NCI-H226 lung and in the assay on SF-268 CNS was over 1 µM throughout. The GI50 with SNB-19 CNS and in the assay on UACC-62 melanoma was over 1 µM throughout. Also, the TGI in the assay with CCRF-CEM leukemia, in the assay on DLD-1 colon, in the assay on DMS 273 small cell lung, in the assay with HCT-116 colon, in the assay with HL-60(TB) leukemia and with NCI-H226 lung was over 100 µM in each case. For the same compound, the TGI with OVCAR-8 ovarian, in the assay on SF-268 CNS, in the assay with SNB-19 CNS and in the assay with UACC-62 melanoma was over 100 µM throughout.

`C=CC(=O)N1C/C(=C\c2ccc(Cl)c(Cl)c2)C(=O)/C(=C/c2ccc(Cl)c(Cl)c2)C1`: the TGI in the assay on CCRF-CEM leukemia came out at 0.082 µM; with DLD-1 colon, 0.154 µM; in the assay on DMS 273 small cell lung it was 0.315 µM; in the assay on HCT-116 colon it was 0.188 µM; in the assay on NCI-H226 lung, 2.73 µM; with OVCAR-8 ovarian, 0.274 µM. Also, the TGI is 0.298 µM in the assay with SF-268 CNS and 0.687 µM in the assay on UACC-62 melanoma.

Consider `COc1cc(CNc2nc3c(N)cc(C(F)(F)F)cc3nc2-c2ccccc2)cc(OC)c1OC`, for which the GI50 in the assay on CCRF-CEM leukemia, with HL-60(TB) leukemia and with SNB-19 CNS was over 100 µM each time. Besides, the TGI in the assay with CCRF-CEM leukemia, with DLD-1 colon, in the assay with DMS 273 small cell lung, with HCT-116 colon, in the assay on HL-60(TB) leukemia and in the assay with NCI-H226 lung was over 100 µM each time. The TGI with OVCAR-8 ovarian, with SF-268 CNS, in the assay on SNB-19 CNS and in the assay with UACC-62 melanoma was over 100 µM in each case.

For `CCO/C=C1\N=C(c2ccc(Cl)c(Cl)c2)OC1=O`, the TGI in the assay with CCRF-CEM leukemia, with DLD-1 colon, with DMS 273 small cell lung, in the assay on HL-60(TB) leukemia, in the assay with NCI-H226 lung and in the assay with OVCAR-8 ovarian was over 100 µM throughout. The TGI in the assay with SF-268 CNS, with SNB-19 CNS and in the assay on UACC-62 melanoma was over 100 µM throughout.

For `CCOC(=O)N1C/C(=C\c2ccccc2)C(=O)/C(=C/c2ccccc2)C1`, the TGI stood at 5.79 µM in the assay with CCRF-CEM leukemia; 7.25 µM with DLD-1 colon; 6.44 µM in the assay with DMS 273 small cell lung; 2.75 µM in the assay on HCT-116 colon; 4.3 µM in the assay on HL-60(TB) leukemia; 12.3 µM with NCI-H226 lung. Also, the TGI in the assay on OVCAR-8 ovarian stood at 9.51 µM; in the assay with SF-268 CNS it was 11.9 µM; with SNB-19 CNS it was 20.2 µM; in the assay with UACC-62 melanoma it was 6.51 µM.

`CC(C)N(C(=O)c1cccc(C(=O)N(C(C)C)C(C)C)c1)C(C)C`: the TGI with CCRF-CEM leukemia, in the assay with DLD-1 colon, in the assay on DMS 273 small cell lung, in the assay on HCT-116 colon, with HL-60(TB) leukemia and with NCI-H226 lung was over 100 µM each time. The TGI in the assay with OVCAR-8 ovarian, with SF-268 CNS, with SNB-19 CNS and with UACC-62 melanoma was over 100 µM in each case.

As to `C#CC1(O)CCC2C3CCc4cc(Oc5nc(F)nc(-c6c7ccccc7c7n6CCS7)n5)ccc4C3CC[C@@]21C` (some centres undefined), the TGI was 80.1 µM in the assay with CCRF-CEM leukemia; over 100 µM in the assay on DLD-1 colon; 87.8 µM with DMS 273 small cell lung; 25.8 µM with HCT-116 colon; 54.5 µM in the assay with HL-60(TB) leukemia; 92.5 µM with NCI-H226 lung. The TGI in the assay with OVCAR-8 ovarian is over 100 µM; in the assay on SF-268 CNS, over 100 µM; in the assay on SNB-19 CNS, 70.6 µM; in the assay on UACC-62 melanoma, 86.2 µM.

For `COc1ccccc1N=Nc1c(-c2ccccc2)nn(C(=O)CC(=O)Nc2cccc(C)c2)c1-c1ccccc1`, the TGI is over 100 µM with CCRF-CEM leukemia; over 100 µM with DLD-1 colon; over 100 µM in the assay on DMS 273 small cell lung; over 100 µM in the assay with HCT-116 colon; 38 µM in the assay on HL-60(TB) leukemia; over 100 µM in the assay on NCI-H226 lung. Moreover, the TGI in the assay with OVCAR-8 ovarian, in the assay on SF-268 CNS, in the assay with SNB-19 CNS and in the assay with UACC-62 melanoma was over 100 µM in each case.

In the case of `COC(=O)CCC(NC(=S)N/N=C(\C)c1ccc[nH]1)C(=O)OC` (centres undefined), the TGI with CCRF-CEM leukemia, in the assay on DLD-1 colon, in the assay with DMS 273 small cell lung, with HCT-116 colon, in the assay on HL-60(TB) leukemia and with NCI-H226 lung was over 100 µM throughout. Moreover, the TGI with OVCAR-8 ovarian, with SF-268 CNS, in the assay on SNB-19 CNS and in the assay with UACC-62 melanoma was over 100 µM in each case.

`ClC(Cl)=C(Cl)C1(Cl)CC1COCc1ccccc1` (centres undefined): the TGI is 49 µM in the assay on CCRF-CEM leukemia; over 100 µM with DLD-1 colon; over 100 µM in the assay on DMS 273 small cell lung; 41.9 µM with HL-60(TB) leukemia; 95.6 µM in the assay with NCI-H226 lung; over 100 µM in the assay on OVCAR-8 ovarian. Further, the TGI with SF-268 CNS was over 100 µM; in the assay on SNB-19 CNS it was over 100 µM; in the assay with UACC-62 melanoma it was 69.5 µM.

As for `C=CCn1c(=S)sc2c(C(=O)OCC)c3c(C)cc(C)cn3c2c1=O`, the TGI in the assay with CCRF-CEM leukemia, in the assay on DLD-1 colon, in the assay on DMS 273 small cell lung, in the assay on HCT-116 colon, in the assay on HL-60(TB) leukemia and in the assay on NCI-H226 lung was over 100 µM throughout. For the same compound, the TGI with OVCAR-8 ovarian, in the assay on SF-268 CNS, in the assay with SNB-19 CNS and with UACC-62 melanoma was over 100 µM in each case.

For the compound `O=c1cccccc1[O-].O=c1cccccc1[O-].O=c1cccccc1[O-].[Eu+3]`, the TGI in the assay with CCRF-CEM leukemia is 78 µM; in the assay on DLD-1 colon, over 100 µM; in the assay with DMS 273 small cell lung, over 100 µM; with HCT-116 colon, 76.7 µM; with HL-60(TB) leukemia it was 74.5 µM; in the assay on NCI-H226 lung, over 100 µM. Further, the TGI in the assay on OVCAR-8 ovarian was 63.8 µM; with SF-268 CNS, over 100 µM; with SNB-19 CNS, over 100 µM; in the assay on UACC-62 melanoma it was over 100 µM. In addition, the values for the GI50 with DLD-1 colon and with DMS 273 small cell lung were 24 µM and 16.9 µM, respectively.

`COc1cc(/C=C/c2ccc(C)cc2)cc(OC)c1OC`: the TGI in the assay on CCRF-CEM leukemia was determined as 25.4 µM; in the assay with DLD-1 colon it was 20.7 µM; in the assay with DMS 273 small cell lung it was 17.6 µM; in the assay on HCT-116 colon it was 14.2 µM; in the assay on HL-60(TB) leukemia it was 21.9 µM; in the assay on NCI-H226 lung it was 11.4 µM. Also, the TGI with OVCAR-8 ovarian came to 15.9 µM; in the assay with SF-268 CNS, 11.2 µM; with SNB-19 CNS it was 38.2 µM; in the assay with UACC-62 melanoma it was 15.6 µM.

With `Cc1c(C(=O)C/C(=N/NC(=O)c2ccccc2)C(=O)Nc2ccc(Cl)cc2)[n+](=O)c2ccccc2n1[O-]`, the TGI in the assay with CCRF-CEM leukemia was 74.4 µM; in the assay on DLD-1 colon it was over 100 µM; in the assay with DMS 273 small cell lung, over 100 µM; with HCT-116 colon it was over 100 µM; in the assay on HL-60(TB) leukemia it was 56.4 µM; in the assay on NCI-H226 lung, over 100 µM. Moreover, the TGI in the assay with OVCAR-8 ovarian, in the assay on SF-268 CNS and with SNB-19 CNS was over 100 µM each time.

As for `CCC[CH2][Sn]([CH2]CCC)([O]C(=O)c1cc(OC)c(OC)cc1OC)[O][Sn]([CH2]CCC)([CH2]CCC)[O]C(=O)c1cc(OC)c(OC)cc1OC`, the GI50 in the assay on CCRF-CEM leukemia was 0.0421 µM; in the assay on DLD-1 colon, 0.253 µM; with DMS 273 small cell lung it was 0.762 µM; with HCT-116 colon, 0.67 µM; with HL-60(TB) leukemia it was 0.288 µM; in the assay on NCI-H226 lung it was 0.507 µM. The GI50 in the assay with OVCAR-8 ovarian is 0.583 µM; in the assay with SF-268 CNS, 0.27 µM; in the assay with SNB-19 CNS, 0.27 µM; with UACC-62 melanoma, 0.251 µM. For the same compound, the TGI in the assay on CCRF-CEM leukemia is 0.422 µM; with DLD-1 colon, 1.34 µM; with DMS 273 small cell lung, 1.76 µM; in the assay on HCT-116 colon, 1.82 µM; in the assay on HL-60(TB) leukemia, 1.31 µM; with NCI-H226 lung, 1.08 µM. The TGI in the assay on OVCAR-8 ovarian is 1.89 µM; in the assay on SF-268 CNS it was 0.972 µM; with SNB-19 CNS, 1.08 µM; with UACC-62 melanoma, 0.715 µM.
